{
  "source": "patent US9072768B2",
  "about": "“Composition and method for increasing effectiveness of radiation or chemotherapy” (Kibow Biotech, Inc., priority 2013, dated 2015)",
  "origin": "cited, not measured here",
  "test_system": "colorectal cancer",
  "conditions": "adjuvant treatment, stage III patients",
  "data": [
    {"compound": "O=c1[nH]cc(F)c(=O)[nH]1", "note": "[5-Fluorouracil]", "values": [
      {"measurement": "improvement of absolute 5-year survival", "result": "approximately 10%"}
    ]}
  ]
}
